By melting point is commonly meant the temperature of the solid-liquid transition.

This is an account of results in a melting point compilation (Tetko et al.; mined from patent text by program, amines drawn as free bases though some values may be those of a salt).

Turning to `O=S(=O)(c1ccccc1)n1c(-c2cccc(C(O)c3cc4ccccc4n3S(=O)(=O)c3ccccc3)c2)cc2ccccc21` (centres undefined), the melting point lay in the range of 81 to 83 °C.

As for `CC(C)P1(=O)c2ccccc2CN1c1ccc(Cl)cc1` (centres undefined), the melting point fell in the range of 172 to 174 °C.

Turning to `O=C1c2c(oc3ccccc23)-c2ccc(O)c3cccc1c23`, the melting point came out at 374 °C.

The compound `Cc1ccccc1C(=O)N(c1ccccc1)c1ccc(OCCN(C)C)cc1` had a melting point of 98.5 to 102 °C.

As to `Cc1cccc(-c2[nH]c(C(C)C)nc2-c2cccc(-c3cccs3)c2)n1`, the melting point is 73 to 76 °C.

For the compound `CC1(C2CCC3C4CCC5CC(CC(=O)O)CCC5(C)C4CCC32C)OCCO1` (centres undefined), the melting point lay within 164 to 167 °C.

`CCOC(=O)/C(C)=C/CC[C@@H](C)[C@H]1CC[C@@]2(C)C3=CCC4C(C)(C)C(=O)CC[C@]4(C)C3=CC[C@]12C` (some centres undefined): the melting point lay within 53 to 55 °C.

For the compound `CS(=O)(=O)c1ccc(-c2cc(C(=O)CCCO)nn2C2CCCCC2)cc1`, the melting point fell in the range of 112 to 114 °C.

`CCN(CCCN1CCN(c2ccccc2OC)CC1)C1CCc2ncsc2C1` (centres undefined) displayed a melting point of 64 °C.

`N#Cc1cnc2c(oc3ccccc32)c1Nc1ccc(Oc2ccccc2)cc1` had a melting point of 175 to 179 °C.

`Cc1ccc(Cn2nc(C(=O)NC3CCCCC3C)cc2-c2ccc(Cl)c(Cl)c2)cc1Cl` (centres undefined) returned a melting point of 165 °C.

As to `COc1ccc(C(=O)c2sccc2OC)cc1`, the melting point is 98 to 99 °C.

In turn, `Nc1nc(N)c2c(ccc3c2cc(Cl)n3Cc2ccccc2)n1` came in with a melting point of 285 to 286 °C.

As for `N#CC=C(c1ccc(-c2ccccc2)cc1)c1ccc(-c2ccccc2)cc1`, the melting point came out at 154 °C.

In the case of `CN(C)c1ccc(C(=O)N2CCC(c3[nH]nc4c3C(=O)c3c(NC(=O)NN5CCOCC5)cccc3-4)CC2)cc1`, the melting point lay within 189 to 191 °C.

The compound `C=CCNC(=S)NC(=O)c1ccccc1` returned a melting point of 68 to 69 °C.

Regarding `OC(Cn1cncn1)(CC(Cl)(Cl)Cl)c1ccc(F)cc1` (centres undefined), the melting point stood at 127 °C.

As for `CCOC(=O)CC(NC(=O)C1CCCCC1)C(=O)c1ccco1` (centres undefined), the melting point lay in the range of 58 to 61 °C.

`CS(=O)(=O)n1cc(C2CCN(S(=O)(=O)N3CCCC[C@@H]3C(=O)NO)CC2)c2cc(C#N)ccc21` gave a melting point of 143 to 144 °C.

`CCOC(=O)Nc1nc2cc(-c3cccnc3)cc(-c3ccccn3)c2s1`: the melting point was 235 °C.

In turn, `Cc1ccncc1-n1nc(C)c(CC(=O)O)c1-c1ccccc1` showed a melting point of 246 °C.

Consider `O=C(NC=CCc1cn(C2CC(O)C(CO)O2)c(=O)[nH]c1=O)C(F)(F)F` (centres undefined), for which the melting point was in the range of 183 to 184 °C.

Compound `O=C1NCC(COc2ccccc2)O1` (centres undefined) showed a melting point of 108 to 109 °C.

`O=C(c1ccccc1)N1CCN(Cc2ccccc2)CCN1C(=O)c1ccccc1` came in with a melting point of 135 to 138 °C.

As to `CCOC(=O)C1=C(C)Nc2n[nH]cc2C1c1ccccc1OC` (centres undefined), the melting point lay within 196 to 200 °C.

Consider `CC1CN2C(=NC1=O)CCC2C` (centres undefined), for which the melting point was 150 to 152 °C.

In turn, `COC(=O)COc1cccc2c(CCS(=O)CCc3ccccc3)c(C)oc12` (centres undefined) displayed a melting point of 77 to 78 °C.

For `Cc1nc[nH]c1CSCCNC(=N)NS(=O)(=O)c1ccccc1`, the melting point fell in the range of 149 to 150 °C.

The compound `O=C1C(=O)N(Cc2ccc(Br)cc2)c2ccc(S(=O)(=O)N3CCCC3COc3ccccc3)cc21` (centres undefined) showed a melting point of 112 to 113 °C.

Compound `COC(C)(OC)C(C#N)=Cc1ccccc1` registered a melting point of 45 to 46 °C.

Compound `CN1CCN(C(=O)NC(CS)Cc2ccccc2)CC1` (single isomer, unassigned; (-)) had a melting point of 68 to 70 °C.

Consider `CC1=Nc2ccc(F)c(F)c2OC1`, for which the melting point amounted to 51.2 °C.

Consider `CCOC(=O)n1ccc(=O)c2cnc(N3CCN(CC)CC3)nc21`, for which the melting point turned out to be 161 °C.

For `FC(F)(F)c1ccc(I)c(I)c1`, the melting point lay within 62 to 64 °C.

On to `O=c1[nH]c2cc(Cl)ccc2n1C1CCN(CC2=NOC(c3ccc(F)cc3)C2)CC1` (single isomer, unassigned; (-)), for which the melting point fell in the range of 143 to 145 °C.

As to `O=C1CCC(C(=O)c2ccc(C3CCCCC3)cc2)N1` (centres undefined), the melting point stood at 200 °C.

Consider `CCc1cn(C2OC(CO)C(O)C2O)c(=O)[nH]c1=O` (centres undefined), for which the melting point was in the range of 180 to 181 °C.

On to `N#CC(C#N)c1cccc(Br)c1`, for which the melting point lay within 97 to 99 °C.

On to `C[C@]1(CN2CCN(C3CCN(C(=O)OCc4ccc(OC(F)(F)F)cc4)CC3)CC2)Cn2cc([N+](=O)[O-])nc2O1`, for which the melting point was 105 to 106 °C.

Regarding `N=C1NC(=O)C(Cc2ccc(OCCN3CCOCC3)cc2)S1` (centres undefined), the melting point fell in the range of 189 to 190 °C.

Consider `CCCc1c(OCCCc2ccc3cc(OC)c(OC)cc3c2)ccc(C(=O)O)c1O`, for which the melting point was 165 to 168 °C.

Compound `Oc1c(Cl)cc2c(-c3ccccc3F)noc2c1Cl` gave a melting point of 194 to 196 °C.

The compound `CC(C)(C)OC(=O)Nc1ccc2[nH]c(C(=O)OCc3ccccc3)cc2c1` came in with a melting point of 180 to 182 °C.

For the compound `Cc1cc(NC(=O)C(CS)CC(C)C)cc(C(=O)O)c1` (centres undefined), the melting point lay in the range of 193 to 195 °C.

As for `COc1cc(C)cc(OC)c1-c1ccccc1C(=O)O`, the melting point was 187 °C.

For `NCC(O)COc1ccc(-c2ccccc2)cc1` (centres undefined), the melting point was in the range of 138 to 147 °C.

Consider `CCC(=O)Nc1cccc(NC(=O)CC(C)=O)c1`, for which the melting point was 70 °C.

Compound `O=C(CCCN1CCN(c2cc(-c3ccc(F)cc3)c3c(n2)CCC3)CC1)c1ccc(F)cc1` came in with a melting point of 115 to 116 °C.

Regarding `Cc1c(CC2CCc3cc4ccccc4n3C2=O)ncn1Cc1ccccc1` (centres undefined), the melting point was 130 to 140 °C.

As to `CSCCOc1c(-c2ccc(S(C)(=O)=O)cc2)cnn(CC(F)(F)F)c1=O`, the melting point is 103 to 105 °C.

For the compound `Cc1c(C)c2ccc(OCCCCN3CCN(c4cccc(Cl)c4Cl)CC3)nc2[nH]c1=O`, the melting point is 161 to 163 °C.

`COc1cc(C(=O)N2CCN(C(=O)c3cc(OC)c(OC)c(OC)c3)C(COC(=O)N3CCCCC3)C2)cc(OC)c1OC` (centres undefined): the melting point stood at 147 °C.

`CNc1cc(Cc2c(-c3ccc(OCCN4CCCC4)cc3)sc3cc(O)ccc23)ccc1CN1CCCC1` showed a melting point of 99 to 102 °C.

Consider `CCN/C(=C1/Sc2ccccc2C1=O)c1ccccc1CC`, for which the melting point lay in the range of 76 to 77 °C.

In turn, `Cc1cc(Nc2ccnc(Nc3ccc(S(=O)(=O)N(CCN)C4CCNCC4)cc3)n2)ccc1F` gave a melting point of 134 to 135 °C.

The compound `CNc1nc(-c2ccccc2)c(CCOC)c2ncnn12` returned a melting point of 133 to 136 °C.

`Nc1cc(NC(=O)c2ccccc2)ccn1`: the melting point was 187 to 188 °C.

`CCCNC(=O)N1C2=NC(C)(C)N(CCC)C(=O)N2c2ccccc21` gave a melting point of 72 to 74 °C.

Regarding `CC1OC(Cn2cncn2)(c2ccc(Cl)cc2Cl)CN1S(=O)(=O)c1ccc(C(F)(F)F)cc1` (centres undefined), the melting point lay within 188 to 190 °C.

`CCOC(=O)C(Cc1ccccc1)C(=O)Nc1ccc(CP(=O)(OCC)OCC)cc1` (centres undefined) came in with a melting point of 115 to 116 °C.

As to `COc1cccc(C=Cc2nc3c(s2)N(S(C)(=O)=O)CCC3)c1OC`, the melting point lay within 134 to 136 °C.

Regarding `Nc1ccc(S(=O)(=O)c2cnc(N)s2)cc1`, the melting point lay within 218 to 219 °C.

As to `CC(C)(C)c1ccc(NS(=O)(=O)c2ccc(N3CCNC3=O)cc2)cc1`, the melting point lay within 241 to 243 °C.

`NS(=O)(=O)c1ccc(SCCCO)c(C(=O)O)c1` came in with a melting point of 204 to 206 °C.

Compound `CC(C)(CCCCCCCCCCCCC1(C(=O)O)CC1)C(=O)O` showed a melting point of 85.6 to 86.7 °C.

Compound `CCCCCCCCCCCC(=O)Oc1c(C(=O)c2ccc(Cl)cc2Cl)c(C)nn1C` came in with a melting point of 56 °C.

Regarding `CC(NC(=O)C=Cc1ccc(C(C)(C)C)cc1)c1ccc(NS(C)(=O)=O)c(F)c1` (centres undefined), the melting point fell in the range of 154 to 156 °C.

On to `CCCc1nc(C(=O)OC)c(C(=O)OC)n1Cc1ccc(-c2ccccc2-c2nnnn2C(c2ccccc2)(c2ccccc2)c2ccccc2)cc1`, for which the melting point was in the range of 124 to 126 °C.

Regarding `Cc1cc(=O)c2ccc(OCCCN3CCC(NC(=O)c4ccccc4[N+](=O)[O-])CC3)cc2o1`, the melting point lay within 185 to 187 °C.

`COc1ccc2c(Cc3c(Cl)cncc3Cl)nnc(-n3cncn3)c2c1` came in with a melting point of 207 to 208 °C.

In turn, `CC(=O)c1ccc(-c2ccc3c(ccn3Cc3ccccc3)c2)cc1` showed a melting point of 134 to 135 °C.

`Cc1cccnc1-c1ccccc1Nc1nc(Nc2ccc3c(c2)C(C)(C)CCC(=O)N3)ncc1Cl` registered a melting point of 130 to 135 °C.

`CC(=O)Oc1cc(OC(C)=O)c2c(c1)OC(c1ccc(OC(C)=O)c(OC(C)=O)c1)CC2` (centres undefined) came in with a melting point of 143 to 144 °C.

The compound `O=C1C(=O)c2ccccc2C2=C1SCC1(CCN(S(=O)(=O)c3cccc(Cl)c3)CC1)O2` showed a melting point of 255 to 256 °C.

`Cc1ccccc1OCC(O)COc1cccc2oc(C(=O)O)cc(=O)c12` (centres undefined): the melting point was 95 to 97 °C.

The compound `COc1ccc(C2=NN(C3CCN(C(=O)N4CCOCC4)CC3)C(=O)[C@@H]3CC=CC[C@H]23)cc1OC` returned a melting point of 184 to 185 °C.

`CC(C)(C)NC(=O)[C@@H]1CCCN1C(=O)[C@@H](O)[C@H](Cc1ccccc1)NC(=O)[C@H](CC(N)=O)NC(=O)COC1CCN(Cc2ccccc2)CC1` yielded a melting point of 94 to 103 °C.

The compound `COc1ccc([C@H]2Cc3c(cccc3C(F)(F)F)NC(=O)[C@H]2OC(=O)c2ccccc2C(=O)O)cc1` (relative stereo) showed a melting point of 161 to 162 °C.

For `CNC(=C[N+](=O)[O-])NCc1ccc(Cl)nc1Cl`, the melting point lay in the range of 211 to 213 °C.

As to `O=C(c1ccc(Cl)cc1)c1ccc(NCC2CO2)cc1` (centres undefined), the melting point is 128 to 129 °C.

For `CN(C)C(=O)C=C(N(C(N)=O)c1cc(F)c(C#N)cc1F)C(F)(F)F`, the melting point is 198 °C.

`CC1(C)CCC(C)(C)c2cc(C(O)CNc3ccc(C(=O)O)c(O)c3)ccc21` (centres undefined) displayed a melting point of 165 to 166 °C.

The compound `Cc1ccc(-n2nc(C(F)(F)F)cc2-c2ccc(S(C)(=O)=O)cc2)cc1Cl` registered a melting point of 136 to 138 °C.

The compound `O=C1[C@H]2CCC[C@H]2N(C(=O)CBr)c2ccccc2N1Cc1ccc([N+](=O)[O-])cc1` (relative stereo) yielded a melting point of 160 to 162 °C.
